The term Kd denotes the concentration at which binding is half-saturated. One may read the koff as a measure of how fast the partners let go of each other. Usually kon stands for the second-order rate constant of association.

Here are results for one compound from patent US10124033B2, “Peptides and methods of use” (BAXALTA INCORPORATED, priority 2014, dated 2018).

Read-outs that look alike come from different tables or passages of the source. Residues, ends and D or L forms follow the SMILES beside them.

Assay [1] deals with T1, human full-length Protein S (Homo sapiens, UniProt P07225).
T1 construct: using human full-length Protein S and human GAS6
T1 sequence (P07225 41-676 limits assumed): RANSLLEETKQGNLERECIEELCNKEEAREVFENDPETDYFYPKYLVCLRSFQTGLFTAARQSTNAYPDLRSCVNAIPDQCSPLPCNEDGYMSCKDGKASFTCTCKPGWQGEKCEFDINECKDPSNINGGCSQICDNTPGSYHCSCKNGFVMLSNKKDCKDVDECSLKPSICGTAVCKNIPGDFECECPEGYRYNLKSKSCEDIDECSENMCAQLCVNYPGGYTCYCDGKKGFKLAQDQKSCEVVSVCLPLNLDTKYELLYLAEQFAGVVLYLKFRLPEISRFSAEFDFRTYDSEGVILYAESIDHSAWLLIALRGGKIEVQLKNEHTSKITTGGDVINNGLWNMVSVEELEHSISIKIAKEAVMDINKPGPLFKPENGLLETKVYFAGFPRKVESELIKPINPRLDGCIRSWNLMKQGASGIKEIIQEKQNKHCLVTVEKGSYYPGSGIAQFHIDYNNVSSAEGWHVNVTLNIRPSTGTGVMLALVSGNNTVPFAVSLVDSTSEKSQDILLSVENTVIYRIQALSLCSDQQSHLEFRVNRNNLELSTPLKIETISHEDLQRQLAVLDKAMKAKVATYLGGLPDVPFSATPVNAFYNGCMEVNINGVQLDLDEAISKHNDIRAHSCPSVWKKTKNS
The experiment in a line: Biacore (surface plasmon resonance) on immobilized Protein S. The following applies: for koff: read-out: koff; for kon: read-out: kon. In kind it is binding. The method in brief: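 Peptides were injected at various concentrations in HBS with 3 mM CaCl2 and 1% DMSO over ~1000 RU of immobilized protein, with 4 M MgCl2 regeneration. kon and koff came from a Langmuir fit, from which KD was calculated; GAS6 served as the anti-target surface.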
Background: SPR reads the build-up and loss of mass on a sensor chip optically.

Another assay has as its target T2, human GAS6 (Homo sapiens, UniProt Q14393).
T2 sequence (Q14393 31-678): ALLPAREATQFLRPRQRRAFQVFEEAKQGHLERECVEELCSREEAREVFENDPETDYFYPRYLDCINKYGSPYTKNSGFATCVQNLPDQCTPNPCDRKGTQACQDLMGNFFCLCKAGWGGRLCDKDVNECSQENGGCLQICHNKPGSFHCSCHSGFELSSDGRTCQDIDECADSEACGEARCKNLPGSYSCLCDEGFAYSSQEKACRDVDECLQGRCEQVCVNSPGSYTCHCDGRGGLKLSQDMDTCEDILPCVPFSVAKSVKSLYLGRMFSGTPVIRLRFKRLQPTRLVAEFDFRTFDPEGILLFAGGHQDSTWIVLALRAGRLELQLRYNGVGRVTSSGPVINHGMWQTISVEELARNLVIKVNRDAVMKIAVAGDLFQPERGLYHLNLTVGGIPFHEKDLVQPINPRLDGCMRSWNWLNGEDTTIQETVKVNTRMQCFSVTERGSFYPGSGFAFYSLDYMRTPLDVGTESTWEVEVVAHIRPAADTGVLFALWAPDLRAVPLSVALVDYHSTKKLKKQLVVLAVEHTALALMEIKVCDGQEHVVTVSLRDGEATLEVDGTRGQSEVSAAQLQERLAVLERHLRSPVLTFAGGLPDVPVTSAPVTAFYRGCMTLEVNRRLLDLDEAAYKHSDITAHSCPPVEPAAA
Nature of the assay: Biacore binding to anti-target GAS6. The procedure: Protein S affinity also was determined via Biacore (Biacore 3000 or Biacore T200) using human full-length Protein S and human GAS6. Briefly, 1000 RU of Protein S or GAS6 were immobilized on a CMS chip. In order to probe the kinetics of Protein S binding peptides to Protein S, the peptides were injected at various concentrations in a HBS-buffer containing 3 mM CaCl2 and 1% DMSO to the flow cell and allowed to interact with the immobilized proteins on the sensor chip. The chip could be regenerated with 4 M MgCl2 in HBS-buffer. Sensorgrams were fitted to a Langmuir binding model for the determination of kon and koff and the calculation of KD. Peptides were tested on their specificity to Protein S with peptide binding studies on the anti-target GAS6.
Interactions with the anti-target GAS6 were measured via Biacore (surface plasmon resonance) (see Example 2). The maximum signal from the interaction of the peptides with human GAS6 was much lower than the signals obtained with Protein S as interaction partner. Kinetic analysis of the low GAS6 binding signals was error prone, and sensorgrams were reviewed visually to estimate anti-target binding. […] The affinity of JBS2572 for the anti-target was at least 10 times less (indeed, at least 150 times less) than the affinity of the peptides for human Protein S. The data provided by this example confirm that peptides described herein specifically bind Protein S.

`CC(=O)N[C@H](C(=O)NCC(=O)N[C@@H](CC(C)C)C(=O)N[C@H](C(=O)N[C@@H](CO)C(=O)N[C@@H](C)C(=O)NCC(=O)N[C@@H](Cc1c[nH]c2ccccc12)C(=O)N[C@@H](Cc1ccc(O)cc1)C(=O)N[C@@H](CC(=O)O)C(=O)N[C@@H](Cc1ccc(O)cc1)C(=O)N[C@@H](CC(N)=O)C(=O)N[C@@H](Cc1ccccc1)C(=O)N[C@@H](CC(=O)O)C(=O)N[C@@H](Cc1c[nH]cn1)C(=O)N[C@@H](Cc1ccc(O)cc1)C(=O)N[C@@H](CCCNC(=N)N)C(=O)N[C@@H](CCC(=O)O)C(=O)N[C@@H](Cc1ccccc1)C(=O)N[C@H](C(N)=O)[C@@H](C)O)C(C)C)[C@@H](C)O` [JBS2572] (Ac-TGLVSAGWYDYNFDHYREFT-NH2): the Kd came to 6 nM in assay [1] (25° C., read-out: KD for binding to Protein S); 4 nM in assay [1] (37° C., read-out: KD); 4 nM in assay [1] (Biacore, affinity-matured and modified peptides, read-out: KD). The dissociation rate constant (koff) in assay [1] (25° C.) stood at 0.00148 s⁻¹; in assay [1] (37° C.), 0.00431 s⁻¹. Further, the kon in assay [1] (25° C.) is 248000 M⁻¹ s⁻¹; in assay [1] (37° C.), 1.14e+06 M⁻¹ s⁻¹. In addition, the “affinity for anti-target GAS6 relative to human Protein S (times less)” value at human GAS6 is reported as “at least 150 times”. For the same compound, the “binding to GAS6” value on human GAS6 (1 μM peptide, sensorgrams reviewed visually) was “no specific binding”.
